According to patent publication US8604016B2, “Heterocyclic inhibitors of glutaminase” (Calithera Biosciences Inc., priority 2011, dated 2013):

What was measured:
[1] = biological target: recombinant form of Glutaminase 1 (GAC) (Homo sapiens, UniProt O94925); assay: Recombinant Enzyme Assay (GAC coupled to GDH, NADH absorbance, no preincubation); assay type: biochemical; details: no preincubation; read-out: GAC Delta N2 IC50 no preinc
Procedure, shortened: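 GAC (4 nM) in Tris-HCl pH 8.0 with 150 mM K2HPO4, EDTA, BSA, DTT, plus 4 units/ml GDH and 4 mM ADP, without preincubation. Absorbance at 340 nm was read kinetically for 15 min at 20° C. Slopes (mAU/min) were compared with DMSO-only and control-compound wells on the same plate.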

[2] = tested on: HCT116 colon carcinoma xenograft; assay: Xenograft Efficacy Studies (HCT116 colon carcinoma xenograft); assay type: in vivo, scid/bg mice; details: intraperitoneal administration twice daily to mice, FIG. 1
Experimental: Certain compounds were assayed for in vivo efficacy in xenograft models as follows.
Female scid/bg mice, approximately 6 weeks of age, were implanted subcutaneously on the right flank with 5×10^6 HCT116 cells per mouse in a volume of 100 uL of sterile PBS. When tumors reached a volume of 50-100 mm^3, mice were randomized to groups of n=10 to receive either vehicle or test compound delivered twice daily by intraperitoneal injection. Tumors were measured three times per week using Vernier calipers and tumor volume calculated using the formula: Volume=(Length×Width^2/2), where length and width are the longest perpendicular sides of the tumor. Dosing continued twice daily until control tumors reached a size of 2000 mm^3. Statistical comparisons were made using a 2-way ANOVA with Bonferroni post-test.

Q: `O=C(CCN1CCOCC1)OCC(C(=O)Nc1nnc(CCCCc2nnc(NC(=O)C(COC(=O)CCN3CCOCC3)c3ccccc3)s2)s1)c1ccccc1` (centres unmarked) [Compound 188, {[5,5′-(butane-1,4-diyl)-bis(1,3,4-thiadiazole-5,2-diyl)]-bis(azanediyl)}-bis(3-oxo-2-phenylpropane-3,1-diyl)-bis(3-morpholinopropanoate)] was tested. Which IC50 [1] did it give?
A: 2000 nM

Q: And the tumor size [2]?
A: reduced tumor size
